The results in this text go back to ChEMBL document CHEMBL1268975, “Building a MCHR1 homology model provides insight into the receptor-antagonist contacts that are important for the development of new anti-obesity agents” (Bioorg Med Chem, 2010).

For one experiment, the target named is Histamine H3 receptor (Homo sapiens, UniProt Q9Y5N1).
For experiment [1], the target named is Melanin-concentrating hormone receptor 1 (Homo sapiens, UniProt Q99705). The experiment is described as follows: biochemical. In kind it is cell-based, HEK293.
Description: Displacement of [3H]SNAP-7941 from human MCHR1 expressed in HEK cells

The structures appear in SMILES notation. Some results are limits rather than exact numbers.

Histamine H3 receptor, sequence (Q9Y5N1 whole entry): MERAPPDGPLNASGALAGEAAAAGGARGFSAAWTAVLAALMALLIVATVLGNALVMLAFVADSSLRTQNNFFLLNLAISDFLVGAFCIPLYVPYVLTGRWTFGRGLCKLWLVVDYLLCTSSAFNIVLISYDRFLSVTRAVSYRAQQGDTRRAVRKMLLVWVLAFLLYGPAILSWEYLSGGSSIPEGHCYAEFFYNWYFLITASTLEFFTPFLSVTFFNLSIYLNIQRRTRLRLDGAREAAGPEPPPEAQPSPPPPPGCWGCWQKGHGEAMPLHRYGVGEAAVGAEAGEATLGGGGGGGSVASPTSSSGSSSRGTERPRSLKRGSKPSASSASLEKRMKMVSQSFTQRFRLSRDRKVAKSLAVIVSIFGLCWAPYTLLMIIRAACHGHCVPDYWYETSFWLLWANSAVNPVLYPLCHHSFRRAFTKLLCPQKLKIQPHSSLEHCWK
Melanin-concentrating hormone receptor 1, sequence (Q99705 whole entry): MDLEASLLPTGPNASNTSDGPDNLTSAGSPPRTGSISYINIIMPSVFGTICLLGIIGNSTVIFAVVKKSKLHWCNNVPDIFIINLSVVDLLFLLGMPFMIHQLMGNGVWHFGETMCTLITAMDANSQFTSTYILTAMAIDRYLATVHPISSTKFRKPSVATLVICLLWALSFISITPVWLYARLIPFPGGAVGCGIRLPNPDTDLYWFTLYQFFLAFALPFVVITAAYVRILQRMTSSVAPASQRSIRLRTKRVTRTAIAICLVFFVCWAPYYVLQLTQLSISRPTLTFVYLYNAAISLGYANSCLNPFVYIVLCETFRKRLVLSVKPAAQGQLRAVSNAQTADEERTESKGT
Description for Histamine H3 receptor: Displacement of [125I]Iodoproxyfan from histamine H3 receptor

`COc1ccccc1-c1ccc(CN(CCC2CCN(Cc3ccc(C)cc3)CC2)C(=O)NC(C)(C)CO)cc1`: at Histamine H3 receptor, the inhibition constant Ki – broadly, a measure of affinity in units of concentration, obtained from inhibition or displacement – was 6680 nM.

On to `CC(=O)OCC(C)(C)NC(=O)N(CCC1CCN(Cc2ccc(C)cc2)CC1)Cc1ccc(-c2ccc(F)cc2)cc1`, for which the affinity at Histamine H3 receptor, expressed as Ki, was 2080 nM.

Turning to `Cc1ccc(CN2CCC(CCN(Cc3ccc(-c4ccccc4)cc3)C(=O)NC(C)C)CC2)cc1`, the Ki at Histamine H3 receptor was more than 1000 nM.

For `COc1ccccc1-c1ccc(CNC(=O)NC2CCN(Cc3ccc(C)cc3)CC2)cc1`, at Histamine H3 receptor, the Ki is more than 1000 nM.

In turn, `CCC(COC(C)=O)(COC(C)=O)NC(=O)N(CCC1CCN(Cc2ccc(C)cc2)CC1)Cc1ccc(-c2ccccc2OC)cc1` displayed an inhibitory constant (Ki) at Histamine H3 receptor of 629 nM.

The molecule `Cc1ccc(CN2CCC(NC(=O)NCc3ccc(-c4cccc(C#N)c4)cc3)CC2)cc1` displayed a Ki at Histamine H3 receptor of more than 1000 nM.

In the case of `COc1ccccc1-c1ccc(CN(CCC2CCN(Cc3ccc(C)cc3)CC2)C(=O)NC(C)C)cc1`, the Ki (in experiment [1]; on Histamine H3 receptor) was more than 1000 nM in each case.

Turning to `Cc1ccc(CN2CCC(NC(=O)NCc3ccc(-c4ccccc4)cc3)CC2)cc1`, the Ki on Histamine H3 receptor is more than 1000 nM.

In the case of `CCC(CO)(CO)NC(=O)N(CCC1CCN(Cc2ccc(C)cc2)CC1)Cc1ccc(-c2ccc(OC)cc2)cc1`, the Ki on Histamine H3 receptor came out at 899 nM.

`Cc1ccc(CN2CCC(NC(=O)N(CC(=O)C(C)(C)O)Cc3ccc(-c4cccc(C#N)c4)cc3)CC2)cc1` showed a Ki on Histamine H3 receptor of 2800 nM.

For `Cc1ccc(CN2CCC(CCN(Cc3ccc(-c4cccc(C#N)c4)cc3)C(=O)NC(C)C)CC2)cc1`, affinity at Histamine H3 receptor was put at a Ki of 853 nM.

Consider `COc1ccc(-c2ccc(CN(CCC3CCN(Cc4ccc(C)cc4)CC3)C(=O)NC(C)(C)COC(C)=O)cc2)cc1`, for which, on Histamine H3 receptor, the inhibition constant Ki amounted to 1010 nM.

`Cc1ccc(CN2CCC(CCN(Cc3ccc(-c4cccc(C#N)c4)cc3)C(=O)NC(C)(C)CO)CC2)cc1` gave an inhibition constant Ki on Histamine H3 receptor of 1160 nM.

With `CCC(CO)(CO)NC(=O)N(CCC1CCN(Cc2ccc(C)cc2)CC1)Cc1ccc(-c2ccccc2OC)cc1`, at Histamine H3 receptor, the Ki was 2140 nM.

In the case of `CCC(CO)(CO)NC(=O)N(CCC1CCN(Cc2ccc(C)cc2)CC1)Cc1ccc(-c2ccc(F)cc2)cc1`, the Ki on Histamine H3 receptor was more than 1000 nM.

For `CCC(COC(C)=O)(COC(C)=O)NC(=O)N(CCC1CCN(Cc2ccc(C)cc2)CC1)Cc1ccc(-c2ccc(OC)cc2)cc1`, the Ki on Histamine H3 receptor amounted to 779 nM.

Regarding `CCC(COC(C)=O)(COC(C)=O)NC(=O)N(CCC1CCN(Cc2ccc(C)cc2)CC1)Cc1ccc(-c2ccc(F)cc2)cc1`, the inhibition constant (Ki) at Histamine H3 receptor was 548 nM.

As for `Cc1ccc(CN2CCC(CCN(Cc3ccc(-c4ccc(F)cc4)cc3)C(=O)NC(C)(C)CO)CC2)cc1`, on Histamine H3 receptor, the inhibition constant (Ki) was more than 1000 nM.

At Histamine H3 receptor, `CC(=O)OCC(C)(C)NC(=O)N(CCC1CCN(Cc2ccc(C)cc2)CC1)Cc1ccc(-c2cccc(C#N)c2)cc1` yielded a Ki of 1630 nM.

On Histamine H3 receptor, `CCC(COC(C)=O)(COC(C)=O)NC(=O)N(CCC1CCN(Cc2ccc(C)cc2)CC1)Cc1ccc(-c2cccc(C#N)c2)cc1` showed a Ki of 1310 nM.

With `COc1ccccc1-c1ccc(CN(CCC2CCN(Cc3ccc(C)cc3)CC2)C(=O)NC(C)(C)COC(C)=O)cc1`, on Histamine H3 receptor, the affinity corresponds to a Ki of 1050 nM.

`COc1ccccc1-c1ccc(CN(CC(=O)C(C)(C)O)C(=O)NC2CCN(Cc3ccc(C)cc3)CC2)cc1` showed a Ki on Histamine H3 receptor of 9990 nM.

Regarding `CC(=O)OCC(C)(C)NC(=O)N(CCC1CCN(Cc2ccc(C)cc2)CC1)Cc1ccc(-c2ccccc2)cc1`, the affinity at Histamine H3 receptor, expressed as Ki, was 1130 nM.

Take `Cc1ccc(CN2CCC(NC(=O)N(CC(=O)C(C)(C)O)Cc3ccc(-c4ccccc4)cc3)CC2)cc1`: the Ki (in experiment [1]; on Histamine H3 receptor) was more than 1000 nM in each case.

`COc1ccc(-c2ccc(CN(CCC3CCN(Cc4ccc(C)cc4)CC3)C(=O)NC(C)(C)CO)cc2)cc1`: the Ki at Histamine H3 receptor worked out at 9260 nM.

In turn, `CCC(CO)(CO)NC(=O)N(CCC1CCN(Cc2ccc(C)cc2)CC1)Cc1ccc(-c2cccc(C#N)c2)cc1` yielded an inhibition constant (Ki) at Histamine H3 receptor of 8800 nM.

Molecule `COc1ccc(-c2ccc(CN(CCC3CCN(Cc4ccc(C)cc4)CC3)C(=O)NC(C)C)cc2)cc1` came in with an inhibitory constant (Ki) on Histamine H3 receptor of 6510 nM.

`COc1ccc(-c2ccc(CNC(=O)NC3CCN(Cc4ccc(C)cc4)CC3)cc2)cc1`: affinity on Histamine H3 receptor was put at a Ki of 5150 nM.

For the molecule `Cc1ccc(CN2CCC(NC(=O)N(CC(=O)C(C)(C)O)Cc3ccc(-c4ccc(F)cc4)cc3)CC2)cc1`, the affinity on Histamine H3 receptor corresponds to a Ki of 1420 nM.

In turn, `CCC(COC(C)=O)(COC(C)=O)NC(=O)N(CCC1CCN(Cc2ccc(C)cc2)CC1)Cc1ccc(-c2ccccc2)cc1` showed an inhibition constant Ki on Histamine H3 receptor of 807 nM.

Take `COc1ccc(-c2ccc(CN(CC(=O)C(C)(C)O)C(=O)NC3CCN(Cc4ccc(C)cc4)CC3)cc2)cc1`: the inhibitory constant (Ki) was more than 1000 nM in experiment [1] and 581 nM on Histamine H3 receptor.
